Measured values taken from patent US20230357099A1, “PYRAZOLO [3,4-B] PYRIDINE-4-CARBOXAMIDE NITRIFICATION INHIBITOR” (EUROCHEM ANTWERPTEN, priority 2020, published 2023).
Where two headings read alike, the source gives them in different places.

Columns and labels:
[1] = system: Nitrososphaera viennensis; test: Nitrification inhibition assay on Nitrososphaera viennensis (nitrite, Griess); format: cell-based, Nitrososphaera viennensis EN76T; details: for N. viennensis - relative nitrification (%) at 0.5 µM: 0.5 µM compound; for N. viennensis - relative nitrification (%) at 0.5 µM / N. viennensis - relative nitrification (%) at 5 µM / N. viennensis - relative nitrification (%) at 25 µM: 0% = as strong as 100 µM PTIO, 100% = no inhibition; for N. viennensis - relative nitrification (%) at 5 µM: 5 µM compound; for N. viennensis - relative nitrification (%) at 25 µM: 25 µM compound; for activity at 2.5 µM: Nitrososphaera viennensis, 2.5 µM compound, structural variants outside formula (I), read-out: Relative nitrification (%) by Nitrososphaera viennensis treated with 2.5 µM compound
Description: Nitrite (NO2—) was measured using the Griess reagent (Product number: G4410, Griess reagent (modified), Sigma-Aldrich). Equal volumes of the sample or a diluted sample and the Griess reagent were mixed a transparent flat bottom multi-well plate and incubated in the dark at room temperature for 10 minutes. Absorbance values at 540 nm were measured spectrophotometrically (EnVision, Perkin Elmer®) and used to calculate the [NO2—] by use of a standard curve.
A liquid culture sample of Nitrososphaera viennensis EN76T was kindly supplied by prof. dr. Christa Schleper (University of Vienna). Cells were grown in fresh water medium (FWM) as described earlier by Tourna et al. (2011). All necessary materials were rinsed with 1 % HCl and washed at least 3 times with MilliQ water. FWM (pH 7.5 (KOH)) contained 17 mM NaCl, 3 mM MgCl2 × 2 H2O, 680 µM CaCl2 × 2 H2O, 1.47 mM KH2PO4 and 6.71 mM KCI. After autoclaving, successively 1 mL non-chelated trace element mixture (101 mM HCl, 488 µM H3BO3, 508 µM MnCl2 × 4 H2O, 803 µM CoCl2 × 6 H2O, 101 µM NiCl2 × 6 H2O, 12 µM CuCl2 × 2 H2O, 503 µM ZnSO4 × 7 H2O and 150 µM Na2MoO4 × 2 H2O), 1 mL Fe-NaEDTA (7.5 mM), 1 mL vitamin solution (20 mg/L biotin, 20 mg/L folic acid, 100 mg/L pyridoxine-HCl, 50 mg/L thiamine-HCl, 50 mg/L riboflavin, 50 mg/L nicotinic acid, 50 mg/L DL-pantothenic acid, 50 mg/L P-aminobenzoic acid, 2 g/L choline chloride and 10 mg/L vitamin B12), 2 mL NaHCO3 (1 M), 2 mL kanamycin (100 mg/mL), 2 mL carbenicillin (100 mg/mL), 3 mL NH4Cl (1 M), 10 mL HEPES buffer (1 M, pH 7.6) and 1 mL Na-pyruvate (0.1 M) were added aseptically. All stock-solutions were filter-sterilized, except the autoclaved non-chelated trace element mixture. Cultures were incubated aerobically at 42° C. without shaking in sterile 250-mL Erlenmeyer flasks or 30-mL cultivation tubes (Product number: 216-1290, Quickstart universal containers STERILIN®, VWR) filled with either 100 or 20 mL FWM and sealed with tape (Micropore™ Surgical Tape 1530-1, 3M™). Late-log phase cultures ([NO2-] ≥ 1 mM) were subcultivated by dilution (1:400) in fresh FWM.
7-day old 100 mL cultures grown in 250-mL Erlenmeyer flasks with a [NO2-] ≥ 1 mM were 5 times overconcentrated in fresh FWM by centrifugation (4000 rpm, 15 min, 5° C.) in 50 mL centrifuge tubes (Cat. No. 430829, CentriStar™ Conical Centrifuge Tubes, Corning®). Per batch, all the cultures were pooled in one sterile Schott bottle. Subsequently, 200 µl/well was dispensed at low pipetting speed in transparent flat bottom 96-well plates (Cat. No. 353072, Falcon® 96 Well Clear Microplate, Corning®) using 150 µl wide-bore tips (two steps of 100 µl) on a Tecan robot (Freedom EVO®, Tecan). 0.5 µl of 99.99 % DMSO (negative control - final concentration 0.25%) and 0.5 µl of 0.04 M PTIO (2-phenyl-4,4,5,5-tetramethylimidazoline-1-oxyl 3-oxide, positive control - final concentration 100 µM) were added manually to the first and last column respectively. Finally, 0.5 µl of candidate nitrification inhibitors (1 mM stock solutions in 99.99% DMSO - final concentration 2.5 µM) were added to the central wells using a pin tool on a Tecan robot (Freedom EVO®, Tecan). In between additions, the pins were washed in sequence with 99.5% DMSO, MilliQ water and 100% ethanol and air-dried. All plates were sealed with tape (Micropore™ Surgical Tape 1530-1, 3M™), stacked per 4 on top of a 96-well plate filled with 100 µl MilliQ per well and covered with aluminum foil. Position effects of the stacks within the incubator were considered. Plates were incubated at 42° C. without shaking. 24 h later, NO2— was measured spectrophotometrically at 540 nm (EnVision, Perkin Elmer®). […]

[2] = system: ABIL (ammonia-binding liquid inoculum), nitrifying microbial enrichment containing both AOA and AOB; test: Nitrification inhibition assay on ABIL (ammonium consumption); format: cell-based; details: for activity at 10 µM: 10 µM compound
[3] = 24 h, 24 h, 0% = as strong as 100 µM PTIO, 100% = no inhibition, read-out: ABIL - relative nitrification (%) at 10 µM
[4] = structural variants outside formula (I), read-out: Relative nitrification (%) by ABIL treated with 10 µM compound

Compound | activity at 2.5 µM [1] | activity at 10 µM [2, 4] | further results
Cc1nn(C)c2nc(C(C)C)cc(C(=O)N(C)c3nc4ccccc4s3)c12 [Example 3] |  |  | N. viennensis - relative nitrification (%) at 0.5 µM [1]: 49%; N. viennensis - relative nitrification (%) at 5 µM [1]: 0%; N. viennensis - relative nitrification (%) at 25 µM [1]: 0%; ABIL - relative nitrification (%) at 2 µM ([2]; 2 µM compound, 0% = as strong as 100 µM PTIO, 100% = no inhibition): -30%; activity at 10 µM [2, 3]: -41%
O=S(=O)(Cc1ccccc1F)Nc1ccc2[nH]ncc2c1 [Example 153] | 100% | 100% | 
COC1(C(=O)Nc2ccc(-n3ncc4ccccc43)cc2)CCOC1 (centres unmarked) [Example 134] | 100% | 100% | 
CC(C)n1ncc2cc(NC(=O)CCC(=O)c3ccccc3)cnc21 [Example 68] | 100% | 100% | 
CCC(CC)CN(CC)C(=O)c1cnc2c(c1)c(C)nn2C [Example 54] | 96% | 100% | 
O=C(Nc1ccc2[nH]ncc2c1)C1(c2ccc(F)cc2)CC1 [Example 162] | 100% | 100% | 
COc1ccc(S(=O)(=O)Nc2cccc3cn[nH]c23)c(NS(=O)(=O)C(F)F)c1 [Example 107] | 100% | 96% | 
O=C(O)CC1(CC(=O)Nc2ccc3cn[nH]c3c2)CCCCC1 [Example 129] | 100% | 100% | 
COCCN(C(=O)c1cnc2c(cnn2C(C)C)c1)C1CC1 [Example 79] | 97% | 100% | 
CC(O)CCN(C)S(=O)(=O)c1ccc2cn[nH]c2c1 (centres unmarked) [Example 108] | 100% | 97% | 
CCc1nnc(NC(=O)c2cnc3c(cnn3C(C)C)c2)s1 [Example 24] | 100% | 91% | 
CC(=O)c1ccc(OCC(=O)Nc2cnc3c(cnn3C(C)C)c2)cc1 [Example 87] | 93% | 100% | 
CCCC(O)CNCc1cccc2cn[nH]c12 (centres unmarked) [Example 155] | 100% | 100% | 
O=S1(=O)CCCN1c1cccc(NCc2cccc3cn[nH]c23)c1 [Example 106] | 100% | 94% | 
COCCNC(=O)c1cc(-c2ccc(C)cc2)nc2c1cnn2C(C)C [Example 1] |  |  | N. viennensis - relative nitrification (%) at 0.5 µM [1]: 52%; N. viennensis - relative nitrification (%) at 5 µM [1]: 0%; N. viennensis - relative nitrification (%) at 25 µM [1]: 0%; activity at 10 µM [2, 3]: -9%
COc1ccc(N2CC(C(=O)Nc3ccc4[nH]ncc4c3)CC2=O)cc1 (centres unmarked) [Example 160] | 100% | 100% | 
CC(C)n1ncc2cc(NC(=O)C3=CN4CCS(=O)(=O)N=C4C=C3)cnc21 [Example 53] | 95% | 100% | 
CC(C)n1ncc2cc(C(=O)Nc3ccnn3Cc3ccc(Cl)cc3Cl)cnc21 [Example 84] | 100% | 100% | 
Cc1nc2c(cnn2C(C)C)cc1C(=O)NC(C)c1ccccc1Br (centres unmarked) [Example 62] | 100% | 100% | 
O=C(Nc1ccc(C(=O)Nc2cccc3cn[nH]c23)cc1)c1ccccc1 [Example 137] | 98% | 100% | 
Cc1cc(C)c2c(OCC(=O)N3CCOCC3(C)C)nn(C)c2n1 [Example 45] | 98% | 99% | 
COCCn1ncc2ccc(NS(=O)(=O)c3ccc4c(c3)CCC4)cc21 [Example 144] | 100% | 100% | 
CC(NC(=O)c1cnc2c(cnn2C(C)C)c1)C1CCCO1 (centres unmarked) [Example 52] | 100% | 100% | 

Compound | activity at 2.5 µM [1] | activity at 10 µM [2, 4] | further results
Cc1nc2c(cnn2C(C)C)cc1C(=O)N1CCCN(C)c2nc3ccccc3nc21 [Example 91] | 100% | 100% | 
Cc1cc(-c2nc(-c3ccc4c(c3)OCO4)no2)c2c(C)nn(C)c2n1 [Example 66] | 99% | 100% | 
CCN(Cc1nc2ccccc2c(=O)[nH]1)C(=O)CCc1c(C)nc2c(cnn2C(C)C)c1C [Example 92] | 100% | 100% | 
O=S(=O)(Nc1cccc2cn[nH]c12)N1CCCCC1 [Example 149] | 100% | 100% | 
O=C(Nc1cccc(/C=C/c2ccccn2)c1)c1n[nH]c2ccccc12 [Example 145] | 96% | 100% | 
O=C(NCC1CCCO1)c1n[nH]c2ccc(Br)cc12 (centres unmarked) [Example 142] | 100% | 100% | 
CNS(=O)(=O)c1cccc(C(=O)Nc2cnc3c(c2)c(C)nn3C)c1 [Example 43] | 100% | 98% | 
CC1(C)CN(C(=O)c2n[nH]c3ccccc23)CC[S+]1[O-] (centres unmarked) [Example 157] | 94% | 100% | 
O=C(NCCc1ccccc1)c1n[nH]c2ccccc12 [Example 98] | 100% | 89% | 
O=C(Nc1cccc2cn[nH]c12)c1csc(-c2ccccc2)n1 [Example 131] | 100% | 100% | 
Cc1nn(C)c2ncc(CNCc3ccc(N4CCCC4)nc3)cc12 [Example 59] | 92% | 100% | 
CC(C)n1ncc2cc(C(=O)N(C)Cc3nc4ccccc4s3)cnc21 [Example 85] | 100% | 100% | 
C#CCOCCC(=O)Nc1n[nH]c2c(Cl)cccc12 [Example 120] | 98% | 100% | 
Cc1nc2c(c(C)nn2C)c(C)c1CCC(=O)NCCc1ccc2c(c1)OCO2 [Example 47] | 100% | 100% | 
O=C(NCc1ccc(F)cc1C(F)(F)F)c1cccc2cn[nH]c12 [Example 147] | 92% | 100% | 
CC(C)n1ncc2cc(CNc3ccc4[nH]ncc4c3)cnc21 [Example 94] | 100% | 92% | 
CC(C)n1ncc2cc(CN(C)C3CCSC3)cnc21 (centres unmarked) [Example 38] | 99% | 97% | 
CCCCc1nnc(NC(=O)c2n[nH]c3ccccc23)s1 [Example 97] | 100% | 86% | 
COC(=O)C1(CNCc2cccc3cn[nH]c23)CCOCC1 [Example 152] | 98% | 100% | 
Cc1sc2nc(CN3CCCC3)nc(Nc3ccc4cn[nH]c4c3)c2c1C [Example 95] | 96% | 97% | 
O=C(NC1CC1)c1cccc(NC(=O)c2n[nH]c3ccccc23)c1 [Example 165] | 100% | 100% | 
CC(C)CC(CNC(=O)c1n[nH]c2ccccc12)N1CCOCC1 (centres unmarked) [Example 133] | 100% | 100% | 
